Experimental data as given in patent US7432276B2, “ABCA1 elevating compounds” (CV Therapeutics, Inc., priority 2005, dated 2008).

tested on: ABCA1 mRNA; assay: ABCA1 mRNA induction in THP-1 cells, QuantiGene branched DNA assay; format: cell-based; details: 10 μM test compound, 18-20 hours
Summary of the method: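 THP-1 cells, grown to subconfluence, treated with compounds at 10 and 3 μM in DMEM/BSA for 18–20 h. Lysates hybridized with ABCA1-specific probe 16–18 h at 53 °C; QuantiGene branched DNA luminescence gives fold increase over DMSO.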

Compound | ABCA1 Induction Fold Increase over DMSO Vehicle
COc1cccc2c1OC[C@H]1[C@H]2Nc2ccc(CCC(=O)O)cc2C1(C)C [Number 28, 3-((12aR,6aR)-4-methoxy-7,7-dimethyl-7,12,12a,6a-tetrahydrochromano[4,3-b]quinolin-9-yl)propanoic acid] | 1.9 FOLD INCREASE
COc1ccc(Br)c2c1OCC1C2Nc2ccc(C(N)=O)cc2C1(C)C (stereo not shown) [Number 81, 1-bromo-4-methoxy-7,7-dimethyl-7,12,12a,6a-tetrahydrochromano[4,3-b]quinoline-9-carboxamide] | 1.9 FOLD INCREASE
COc1cccc2c1OCC1C2Nc2ccc(C(O)(C(F)(F)F)C(F)(F)F)cc2C1(C)C (stereo not shown) [Number 33, 1,1,1,3,3,3-hexafluoro-2-(4-methoxy-7,7-dimethyl(7,12,12a,6a-tetrahydrochromano[4,3-b]quinolin-9-yl))propan-2-ol] | 6.4 FOLD INCREASE
COc1cccc2c1OCC1C2Nc2ccc(Br)cc2C1(C)C (stereo not shown) [Number 75, 9-bromo-4-methoxy-7,7-dimethyl-7,12,12a,6a-tetrahydrochromano[4,3-b]quinoline] | 7.4 FOLD INCREASE
COc1cccc2c1[C@H]1Nc3ccc(C(C)C)cc3C(C)(C)[C@H]1CO2 [Number 54, (12aS,6aR)-1-methoxy-7,7-dimethyl-9-(methylethyl)-7,12,12a,6a-tetrahydrochromano[4,3-b]quinoline] | 4.3 FOLD INCREASE
CCS(=O)(=O)N1CCN(C(=O)c2coc(-c3ccc4c(c3)C(C)(C)[C@H]3COc5cccc(F)c5[C@H]3N4)n2)CC1 [Number 142, 2-((6aR,12aS)-1-fluoro-6a,7,12,12a-tetrahydro-7,7-dimethyl-6H-chromeno[4,3-b]quinolin-9-yl)oxazole-(4-(4-ethanesulfonylpiperazin-1-yl)methanone)] | 5 FOLD INCREASE
CC(C)=CCOC(=O)c1ccc2c(c1)C1Nc3ccc(C(O)(C(F)(F)F)C(F)(F)F)cc3C(C)(C)C1CO2 (stereo not shown) [Number 13, 3-methylbut-2-enyl 7,7-dimethyl-9-[2,2,2-trifluoro-1-hydroxy-1-(trifluoromethyl)ethyl]-7,12,12a,6a-tetrahydrochromano[4,3-b]quinoline-2-carboxylate] | 3.4 FOLD INCREASE
COc1cccc2c1OC[C@@H]1[C@H]2Nc2ccccc2C1(C)C [Number 37, (6aS,12aR)-4-methoxy-7,7-dimethyl-7,12,12a,6a-tetrahydrochromano[4,3-b]quinoline] | 8.3 FOLD INCREASE
COc1cccc2c1C1Nc3ccc(C(C)(C)C)cc3C(C)(C)C1CO2 (stereo not shown) [Number 88, 9-(tert-butyl)-1-methoxy-7,7-dimethyl-7,12,12a,6a-tetrahydrochromano[4,3-b]quinoline] | 6.8 FOLD INCREASE
COc1cccc2c1OC[C@@H]1[C@@H]2Nc2ccc(C(=O)N3CCS(=O)(=O)CC3)cc2C1(C)C [Number 128, ((6aS,12aS)-6a,7,12,12a-tetrahydro-4-methoxy-7,7-dimethyl-6H-chromeno[4,3-b]quinolin-9-yl)(1,1-dione-1,4-thiazaperhydroin-yl)methanone] | 2.7 FOLD INCREASE

same assay, conditions: Homo sapiens, 10 μM test compound, 18-20 hours, read-out: ABCA1 Induction Fold Increase over DMSO Vehicle

Compound | fold induction at 10 µM
COc1cccc2c1[C@H]1Nc3ccc(C(=O)NCCO)cc3C(C)(C)[C@H]1CO2 [Number 117, (6aR,12aS)-6a,7,12,12a-tetrahydro-N-(2-hydroxyethyl)-1-methoxy-7,7-dimethyl-6H-chromeno[4,3-b]quinoline-9-carboxamide] | 8.6
COc1cccc2c1[C@H]1Nc3ccc(C(=O)N(C)C)cc3C(C)(C)[C@H]1CO2 [Number 123, (6aR,12aS)-6a,7,12,12a-tetrahydro-1-methoxy-N,N,7,7-tetramethyl-6H-chromeno[4,3-b]quinoline-9-carboxamide] | 6.5
COC(=O)c1ccc2c(c1)C(C)(C)[C@H]1COc3c(OC)cc(Br)cc3[C@H]1N2 [Number 151, (6aR,12aS)-methyl 2-bromo-6a,7,12,12a-tetrahydro-4-methoxy-7,7-dimethyl-6H-chromeno[4,3-b]quinoline-9-carboxylate] | 6.3
